{"source": "paper PMC10986487", "about": "“Epidrugs: alternative chemotherapy targeting Theileria annulata schizont stage parasites” (Microbiology Spectrum, 2024)", "key": {"[1]": {"test_system": "T. annulata-infected bovine cells", "test": "Resazurin-based drug susceptibility assay, 2-fold serial dilutions, 48 hours", "format": "cell-based, Theileria annulata", "conditions": "0.019 µM to 10 µM, read-out: IC50 against T. annulata-infected cells", "experimental": "In this study, we conducted a screening of 148 compounds from the Cayman epigenetics library against the asexual schizont stage of T. annulata-infected bovine cells to assess their potential anti-theilerial activity (Fig. 1A). The initial screening involved testing the compounds at a concentration of 10 µM, with BPQ serving as the internal control. […] Subsequently, we performed drug susceptibility assays on the selected 27 compounds to determine their 50% inhibitory concentration (IC50) values against T. annulata-infected cells. To do this, 2-fold serial dilutions ranging from 0.019 µM to 10 µM were prepared, and the percentage of cell death was assessed after 48 hours using resazurin-based assays.\nFig 1 Screening of epigenetic inhibitors for potential anti-theilerial activity in T. annulata-infected cells. (A) List of compounds and their functional classes used in this study. (B) Inhibition (%) of the hits (n = 27) with anti-theilerial activity when screened in T. annulata-infected cells, where the cut-off (--) was set at 50% inhibition. […] (E) Flow cytometry-based detection of annexin V-positive T. annulata-infected cells upon drug treatment for detection of early apoptosis."}, "Theileria annulata": {"test_system": "Theileria annulata", "design": "method as in earlier work", "conditions": "ref 14 (Titus et al.); read-out: Concentration displaying anti-theilerial effects; cited from earlier work"}}, "note": "Read-outs that look alike come from different tables or passages of the source.", "data": [{"compound": "CC1(C)C(=O)N=C2C1=C(O)C(=O)c1ccccc12", "note": "[BVT-948]", "values": [{"measurement": "IC50", "setting": "[1]", "value": 2.58, "unit": "µM"}]}, {"compound": "COC(=O)/C=C/C(=O)N(O)CCCCNCc1ccc(COC(=O)Nc2cccc3ccccc23)cc1", "note": "[Methylstat]", "values": [{"measurement": "IC50", "setting": "[1]", "value": 6.97, "unit": "µM"}]}, {"compound": "CC1=CC(=O)c2c(O)cccc2C1=O", "note": "[Plumbagin]", "values": [{"measurement": "IC50", "setting": "Theileria annulata", "value": 0.009, "unit": "µM"}, {"measurement": "IC50", "setting": "[1]; Theileria annulata", "value": 8.13, "unit": "µM"}]}, {"compound": "Cc1ccc(NC2=CC(=O)c3sc(C)nc3C2=O)cc1", "note": "[Ryuvidine]", "values": [{"measurement": "IC50", "setting": "[1]", "value": 2.18, "unit": "µM"}]}, {"compound": "O=C(CCl)Nc1ccc(S(=O)(=O)c2ccc(NC(=O)CCl)cc2)cc1", "note": "[TCE-5003]", "values": [{"measurement": "IC50", "setting": "[1]", "value": 3.68, "unit": "µM"}]}, {"compound": "CC(/C=C/C(=O)NO)=C\\[C@@H](C)C(=O)c1ccc(N(C)C)cc1", "note": "[Trichostatin A]", "values": [{"measurement": "IC50", "setting": "[1]", "value": 6.02, "unit": "µM"}]}]}
